Reference: ChEMBL document CHEMBL1201862, “PubChem BioAssay data set” (2004)
Values belong to the compound of their own block, whether it stands above or below them. The source made the active and inactive calls.

Tests used:
Cytochrome P450 2C19 = Cytochrome P450 2C19 (Homo sapiens, UniProt P33261); assay: Cytochrome panel assay with activity outcomes. Panel member name: p450-cyp2c19 Compounds with AC50 equal or less than 10 uM are considered active; assay type: functional
Cytochrome P450 3A4 = Cytochrome P450 3A4 (Homo sapiens, UniProt P08684);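 also: CYP3A4 tested as one member of a cytochrome P450 panel screen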
Cytochrome P450 3A4, sequence (P08684 whole entry): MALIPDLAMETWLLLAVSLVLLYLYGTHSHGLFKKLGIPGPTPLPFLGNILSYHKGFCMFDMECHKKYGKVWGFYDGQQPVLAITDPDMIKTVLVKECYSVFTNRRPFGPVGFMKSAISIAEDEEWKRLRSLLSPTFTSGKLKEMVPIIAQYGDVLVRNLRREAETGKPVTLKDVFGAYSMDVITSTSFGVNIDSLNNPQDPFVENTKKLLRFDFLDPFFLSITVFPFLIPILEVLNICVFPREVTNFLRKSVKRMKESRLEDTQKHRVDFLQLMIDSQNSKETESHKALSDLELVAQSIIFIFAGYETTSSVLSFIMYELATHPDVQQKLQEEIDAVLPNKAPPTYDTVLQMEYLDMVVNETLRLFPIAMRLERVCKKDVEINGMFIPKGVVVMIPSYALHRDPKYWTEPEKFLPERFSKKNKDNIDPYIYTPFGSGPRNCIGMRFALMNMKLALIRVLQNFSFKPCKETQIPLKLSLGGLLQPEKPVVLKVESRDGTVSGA

[1] = NIH3T3 cell viability loss – ATP luminescence, mouse fibroblasts, counter-screen, dose response (AID 2010); assay type: functional, cell-based;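 also: cells exposed to compound for about 90 hours before reading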
[2] = Trypanosoma cruzi growth suppression in host cells – NIH3T3 host cells, beta-gal luminescence, confirmation (AID 2044); assay type: functional, cell-based;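 also: intracellular parasites grown in NIH/3T3 mouse fibroblasts as host cells; luminescent beta-galactosidase reporter signal from transgenic T. cruzi replicating inside host cells; inhibitors lower the luminescence signal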
Cytochrome P450 1A2 = biological target: T1, Cytochrome P450 1A2 (Homo sapiens, UniProt P05177);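 also: PubChem cytochrome P450 panel assay, CYP1A2 panel member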
T1 sequence (P05177 whole entry): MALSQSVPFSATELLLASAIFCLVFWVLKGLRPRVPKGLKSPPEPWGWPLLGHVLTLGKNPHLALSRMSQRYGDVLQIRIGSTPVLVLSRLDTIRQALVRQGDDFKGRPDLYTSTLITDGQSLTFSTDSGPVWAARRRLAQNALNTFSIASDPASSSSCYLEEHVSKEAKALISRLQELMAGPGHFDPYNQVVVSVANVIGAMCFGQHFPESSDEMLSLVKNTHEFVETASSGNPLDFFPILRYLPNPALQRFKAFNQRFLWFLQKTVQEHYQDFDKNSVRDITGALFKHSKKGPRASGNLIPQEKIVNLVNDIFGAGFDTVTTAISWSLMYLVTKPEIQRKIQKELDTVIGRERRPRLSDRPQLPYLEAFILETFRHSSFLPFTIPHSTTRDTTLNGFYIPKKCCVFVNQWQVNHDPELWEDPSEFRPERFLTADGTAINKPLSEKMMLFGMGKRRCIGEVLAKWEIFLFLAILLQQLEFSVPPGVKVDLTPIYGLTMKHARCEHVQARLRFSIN

Cytochrome P450 2C9 = Cytochrome P450 2C9 (Homo sapiens, UniProt P11712)
Cytochrome P450 2C9, sequence (P11712 whole entry): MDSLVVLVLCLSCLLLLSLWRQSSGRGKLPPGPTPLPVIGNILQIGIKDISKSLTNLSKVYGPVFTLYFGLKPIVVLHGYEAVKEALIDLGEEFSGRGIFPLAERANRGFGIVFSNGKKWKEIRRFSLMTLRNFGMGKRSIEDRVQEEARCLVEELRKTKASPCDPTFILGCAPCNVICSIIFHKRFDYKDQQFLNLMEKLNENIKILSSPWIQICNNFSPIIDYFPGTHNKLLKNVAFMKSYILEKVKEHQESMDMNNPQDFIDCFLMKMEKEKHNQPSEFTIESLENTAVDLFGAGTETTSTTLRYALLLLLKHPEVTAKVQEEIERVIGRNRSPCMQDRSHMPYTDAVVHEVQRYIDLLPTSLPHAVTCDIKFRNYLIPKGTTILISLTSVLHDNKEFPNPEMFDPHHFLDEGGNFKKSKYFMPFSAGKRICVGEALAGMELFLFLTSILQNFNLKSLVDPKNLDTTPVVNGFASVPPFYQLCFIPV

Cytochrome P450 2C19, sequence (P33261 whole entry): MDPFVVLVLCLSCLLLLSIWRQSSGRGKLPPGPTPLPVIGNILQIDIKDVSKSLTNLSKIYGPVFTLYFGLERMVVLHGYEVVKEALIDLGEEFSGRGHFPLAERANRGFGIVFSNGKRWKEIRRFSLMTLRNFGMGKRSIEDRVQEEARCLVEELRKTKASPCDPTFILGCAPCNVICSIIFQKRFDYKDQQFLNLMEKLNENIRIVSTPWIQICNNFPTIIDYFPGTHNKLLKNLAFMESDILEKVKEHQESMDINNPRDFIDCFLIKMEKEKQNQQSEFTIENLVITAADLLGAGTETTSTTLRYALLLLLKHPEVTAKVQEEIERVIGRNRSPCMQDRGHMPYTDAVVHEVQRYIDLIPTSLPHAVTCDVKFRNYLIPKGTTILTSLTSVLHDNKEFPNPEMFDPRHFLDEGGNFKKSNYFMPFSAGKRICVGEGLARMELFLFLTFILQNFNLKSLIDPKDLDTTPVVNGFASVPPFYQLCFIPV

SMILES: Fc1cccc(C[n+]2csc3ccccc32)c1
- EC50 [1]: > 60 µM (not active)
- EC50 [2]: 1.99 µM (active)

SMILES: Cc1nc2cnc(N3CCNCC3)nc2n(C)c1=O
- AC50 (Cytochrome P450 2C19): inconclusive
- AC50 (Cytochrome P450 3A4): 15.8 µM (inconclusive)

SMILES: CCCS(=O)(=O)N1CCCC(C(=O)N2CCN(c3ccccc3)CC2)C1 (stereo not drawn)
- AC50 (Cytochrome P450 2C9): 14.1 µM (inconclusive)
- AC50 (Cytochrome P450 1A2): 0.00501 µM (inconclusive)
- AC50 (Cytochrome P450 2C19; read-out: AC50): 6.31 µM (inconclusive)
- AC50 (Cytochrome P450 3A4): 14.1 µM (inconclusive)

SMILES: CCCS(=O)(=O)N1CCCC(C(=O)NCCN2CCC(Cc3ccccc3)CC2)C1 (stereo not drawn)
- AC50 (Cytochrome P450 2C9): 5.01 µM (inconclusive)

SMILES: CC(=O)c1ccc(N2CCN(c3ccc(S(=O)(=O)NCCN(C)C)cc3[N+](=O)[O-])CC2)cc1
- EC50 [1]: > 16 µM (not active)
- EC50 [2]: 0.454 µM (active)

SMILES: COc1ccccc1-c1cc2nc(C)c(CCC(=O)NCc3ccc(F)cc3)c(C)n2n1
- EC50 [1]: > 60 µM (not active)
- EC50 [2]: 2.06 µM (active)

SMILES: O=S(=O)(c1ccc2ccccc2c1)N1CCC(c2nc(-c3ccncc3)no2)CC1
- EC50 [1]: > 60 µM (not active)
- EC50 [2]: 0.564 µM (active)

SMILES: Cc1cc(C(=O)N2CCCC(N3CCN(c4ccccc4C)CC3)C2)n(C)n1 (stereo not drawn)
- EC50 [1]: > 30 µM (not active)
- EC50 [2]: > 30 µM (not active)

SMILES: CC(C)(Oc1ccc(-c2cccc3ccccc23)cc1)C(=O)O
- AC50 (Cytochrome P450 2C9): 0.398 µM (inconclusive)
- AC50 (Cytochrome P450 2C19): inconclusive

SMILES: Cc1ccc2c(c1)C1CN(C)CCC1N2C(=S)NC(=O)c1ccc(Br)cc1 (stereo not drawn)
- EC50 [1]: 41.5 µM (active)
- EC50 [2]: 0.828 µM (active)

SMILES: O=C(NCc1cccnc1)c1ccc(-c2cc(Cl)ccc2Cl)o1
- EC50 [1]: > 30 µM (not active)
- EC50 [2]: 1.72 µM (active)

SMILES: NC(=S)SCCC(=O)O
- AC50 (Cytochrome P450 1A2): 1.58 µM (inconclusive)

SMILES: CCCn1c(=O)c2c(ncn2C)n(CCC)c1=O
- AC50 (Cytochrome P450 3A4): 20 µM (inconclusive)

SMILES: COCc1nc2c([nH]1)c(=O)n(C)c(=O)n2CC(C)C
- AC50 (Cytochrome P450 3A4): 1.26 µM (inconclusive)

Other lines, results leading:

- AC50 (Cytochrome P450 2C19): inconclusive
SMILES: Cc1ccc(S(=O)(=O)N[C@H](CN)C(=O)O)cc1

- AC50 (Cytochrome P450 3A4): 39.8 µM (inconclusive)
SMILES: O=C(O)C1CCN(c2ncnc3ccc(-c4ccccc4C(F)(F)F)cc23)CC1

- AC50 (Cytochrome P450 2C19; read-out: AC50): 28.2 µM (inconclusive)
- AC50 (Cytochrome P450 3A4): 7.94 µM (inconclusive)
SMILES: C=CCNC(=O)c1ccc(-c2nc(-c3ccc(Cl)c(Cl)c3)cs2)cc1

- AC50 (Cytochrome P450 1A2): 15.8 µM (inconclusive)
SMILES: COC(=O)[C@@]1(Cc2ccc(F)cc2)[C@H]2c3cc(C(=O)N4CCCC4)n(CCF)c3C[C@H]2CN1C(=O)c1ccccc1

- AC50 (Cytochrome P450 1A2): 4.47 µM (inconclusive)
SMILES: COc1ccc(N(C(=O)COc2ccccc2OC)S(=O)(=O)c2ccc(C)cc2)cc1

- AC50 (Cytochrome P450 2C19; read-out: AC50): 20 µM (inconclusive)
SMILES: COc1ccccc1CNc1ncnc2ccc(-c3cccnc3)cc12

- AC50 (Cytochrome P450 2C19): inconclusive
SMILES: CCCCN1C(=O)CCC(C(=O)O)C1c1ccccc1 (stereo not drawn)

- AC50 (Cytochrome P450 2C9): 20 µM (inconclusive)
- AC50 (Cytochrome P450 2C19; read-out: AC50): 39.8 µM (inconclusive)
SMILES: CC(C)N(CCNC(=O)C1CCN(S(=O)(=O)N2CCOCC2)CC1)Cc1ccccc1

- AC50 (Cytochrome P450 3A4): 22.4 µM (inconclusive)
SMILES: C=CCNC(=O)c1onc(CSc2ccc(F)cc2)c1C(=O)O

- AC50 (Cytochrome P450 2C9): 10 µM (inconclusive)
- AC50 (Cytochrome P450 2C19; read-out: AC50): 0.00562 µM (inconclusive)
SMILES: Cc1ccc(C)c(NC(=O)C2(C)CC3c4ccccc4C2c2ccccc23)c1 (stereo not drawn)

- AC50 (Cytochrome P450 3A4): 15.8 µM (inconclusive)
SMILES: CCSc1nnc2n(N)c(=O)c3ccccc3n12

- AC50 (Cytochrome P450 2C9): 39.8 µM (inconclusive)
- AC50 (Cytochrome P450 2C19; read-out: AC50): 2 µM (inconclusive)
SMILES: N#C[C@H](Cc1ccc(O)cc1)c1ccc(O)cc1

- AC50 (Cytochrome P450 2C9): 11.2 µM (inconclusive)
- AC50 (Cytochrome P450 2C19): inconclusive
SMILES: COc1cccc(/N=c2\oc3c(C)ncc(CO)c3cc2C(N)=O)c1

- AC50 (Cytochrome P450 2C9): 28.2 µM (inconclusive)
SMILES: C/C(=N/CCN1CCN(C(=S)Nc2ccccc2)CC1)C1=C(O)CC(C)(C)CC1=O

- AC50 (Cytochrome P450 2C9): 10 µM (inconclusive)
- AC50 (Cytochrome P450 2C19; read-out: AC50): 14.1 µM (inconclusive)
SMILES: COc1ccc(/C=N/NC(=O)CCCC(=O)NC2CCCCC2)cc1

- AC50 (Cytochrome P450 2C9): 22.4 µM (inconclusive)
SMILES: COc1ccc(C(=O)Nc2cc(OC)cc(OC)c2)cc1
